Like-named read-outs stand apart in the source and are kept apart here.
Assays:
HCV GT1a(H77) replicon = test: HCV replicon luciferase reporter assay, genotype 1a; format: cell-based, HCV genotype 1a; settings: Hepatitis C virus, 72 h, HUH-7 cells, 3 days incubation
From the text: A stable HCV GT1a(H77) replicon luciferase reporter cell line (Yanagi M, Purcell R H, Emerson S U, et al. Transcripts from a single full-length cDNA clone of hepatitis C virus are infectious when directly transfected into the liver of a chimpanzee. Proc Natl Acad Sci USA 1997; 94(16):8738-8743) was generated as described previously for the genotype 1b(Con1) replicon luciferase cell line. The replicon construct was modified by introducing mutations into the genes encoding the NS3 helicase domain (proline replaced by leucine at position 1496) and NS5A (serine to isoleucine at position 2204) to improve replication in cell culture.
(§1) HCV replicon luciferase assays were developed to monitor the inhibitory effects of compounds described in the disclosure on HCV genotypes 1a and 1b viral replication. HUH-7 cells, constitutively expressing the HCV replicon, were grown in Dulbecco's Modified Eagle Media (DMEM) (Gibco-BRL) containing 10% Fetal calf serum (FCS) (Sigma) and 1 mg/mL G418 (Gibco-BRL). Compounds were serially diluted 3 folds in DMSO for a twenty-point titration and subsequently transferred to sterile 384-well tissue-culture treated plates (Corning cat #3571). The plates were then seeded with 50 μL of cells at a density of 3.0×10^3 cells/well in DMEM containing 4% FCS (final DMSO concentration at 0.5%). After 3 days incubation at 37° C., cells were analyzed for Renilla Luciferase activity using the EnduRen as substrate (Promega cat #E6485). The EnduRen substrate was diluted in DMEM and then added to the plates to a final concentration of 7.5 μM. The plates were incubated for 2 hrs at 37° C. and then read immediately for 30 seconds with Viewlux Imager (PerkinElmer) using a luminescence program. To assess cytotoxicity of compounds, CC50 values were generated by multiplexing the EnduRen-containing plates with Cell Titer-Blue (Promega, cat # G8082). Cell-Titer Blue (3 μL) was added to each well and incubated for 8 hrs at 37° C. The fluorescence signal from each well was read, with an excitation wavelength at 525/10 nm and an emission wavelength of 598/10 nm, using the Viewlux Imager.
(§2) The EC50 values for compounds were calculated by using a four-parameter logistic equation: y=A+((B−A)/(1+((C/x)^D))), where A and B denotes minimal and maximal % inhibition, respectively, C is the EC50, D is the hill slope and x represents compound concentration.

HCV GT1b(Con1) replicon = test: HCV replicon luciferase reporter assay, genotype 1b; format: cell-based, HCV genotype 1b; settings: Hepatitis C virus, 72 h, HUH-7 cells, 3 days incubation
From the text: An HCV GT1b(Con1) replicon cell system was established as described by Lohmann V, Korner F, Koch J, Herian U, Theilmann L, Bartenschlager R., Science 285(5424):110-3 (1999) and modified to introduce a luciferase reporter (Krieger N, Lohmann V, and Bartenschlager R, J. Virol. 75(10):4614-4624 (2001)). cDNA encoding a humanized form of the Renilla luciferase gene, and a linker sequence fused directly to the 3′-end of the luciferase gene were introduced into the replicon construct using an Asc1 restriction site located in core, directly upstream of the neomycin marker gene. The adaptive mutation at position 1179 (serine to isoleucine) was also introduced (Blight K J, Kolykhalov, A A, Rice, C M, Science 290(5498):1972-1974). A stable cell line constitutively expressing this HCV replicon construct was generated by first linearizing plasmid DNAs with ScaI. RNA transcripts were synthesized in vitro using the T7 MegaScript transcription kit (Ambion, Austin, Tex.) according to manufacturer's directions. In vitro transcripts of the cDNA were transfected into the human hepatoma cell line, HUH-7. […] Resulting cell lines were characterized for positive and negative strand RNA production and protein production over time.
as §1, §2

Row | Structure (SMILES) | EC50 (HCV GT1a(H77) replicon; read-out: LE_1a (EC50)) | EC50 (HCV GT1a(H77) replicon; read-out: LE_1a (EC50, range)) | EC50 (HCV GT1b(Con1) replicon; read-out: LE_1b (EC50)) | EC50 (HCV GT1b(Con1) replicon; read-out: LE_1b (EC50, range))
1 | C[C@@H]1CC/C=C\[C@@H]2C[C@@]2(C(=O)NS(=O)(=O)C2(C)CC2)NC(=O)[C@@H]2C[C@@H](OC(=O)Nc3ccc(F)cc3)CN2C(=O)[C@@H](NC(=O)OC(C)(C)C)[C@H](C)C1 [Compound 1304] | 62.5 nM | 35 to 62.5 nM | 20.6 nM | 5.01 to 35 nM
2 | Cc1cc(C)c(NC(=O)O[C@@H]2C[C@H]3C(=O)N[C@]4(C(=O)NS(=O)(=O)C5(C)CC5)C[C@H]4/C=C\CC[C@@H](C)C[C@@H](C)[C@H](NC(=O)OC(C)(C)C)C(=O)N3C2)c(Cl)c1 [Compound 1306] | – | 5.01 to 35 nM | – | 5.01 to 35 nM
3 | C[C@@H]1CC/C=C\[C@@H]2C[C@@]2(C(=O)NS(=O)(=O)C2(C)CC2)NC(=O)[C@@H]2C[C@@H](OC(=O)Nc3ccccc3C(F)(F)F)CN2C(=O)[C@@H](NC(=O)OC(C)(C)C(F)(F)F)[C@H](C)C1 [Compound 1307] | – | 1.01 to 5 nM | – | 1.01 to 5 nM
4 | C[C@@H]1CC/C=C\[C@@H]2C[C@@]2(C(=O)NS(=O)(=O)C2(C)CC2)NC(=O)[C@@H]2C[C@@H](OC(=O)Nc3ccc(F)cc3)CN2C(=O)[C@@H](NC(=O)OC(C)(C)C(F)(F)F)[C@H](C)C1 [Compound 1309] | – | 35 to 62.5 nM | – | 5.01 to 35 nM
5 | Cc1cc(C)c(NC(=O)O[C@@H]2C[C@H]3C(=O)N[C@]4(C(=O)NS(=O)(=O)C5(C)CC5)C[C@H]4/C=C\CC[C@@H](C)C[C@@H](C)[C@H](NC(=O)OC(C)(C)C(F)(F)F)C(=O)N3C2)c(Cl)c1 [Compound 1311] | – | 35 to 62.5 nM | – | 5.01 to 35 nM
6 | CC[C@@H]1C[C@@H](C)CC/C=C\[C@@H]2C[C@@]2(C(=O)NS(=O)(=O)C2(C)CC2)NC(=O)[C@@H]2C[C@@H](OC(=O)N3Cc4cccc(F)c4C3)CN2C(=O)[C@H]1NC(=O)OC(C)(C)C [Compound 1312, (2R,6S,7R,9S,13aS,14aR,16aS,Z)-6-((tert-butoxycarbonyl)amino)-7-ethyl-9-methyl-14a-(((1-methylcyclopropyl)sulfonyl)carbamoyl)-5,16-dioxo-1,2,3,5,6,7,8,9,10,11,13a,14,14a,15,16,16a-hexadecahydrocyclopropa[e]pyrrolo[1,2-a][1,4]diazacyclopentadecin-2-yl 4-fluoroisoindoline-2-carboxylate] | – | 5.01 to 35 nM | – | 1.01 to 5 nM
7 | CC[C@@H]1C[C@H](C)CC/C=C\[C@@H]2C[C@@]2(C(=O)NS(=O)(=O)C2(C)CC2)NC(=O)[C@@H]2C[C@@H](OC(=O)N3Cc4cccc(F)c4C3)CN2C(=O)[C@H]1NC(=O)OC(C)(C)C [Compound 1313, (2R,6S,7R,9R,13aS,14aR,16aS,Z)-6-((tert-butoxycarbonyl)amino)-7-ethyl-9-methyl-14a-(((1-methylcyclopropyl)sulfonyl)carbamoyl)-5,16-dioxo-1,2,3,5,6,7,8,9,10,11,13a,14,14a,15,16,16a-hexadecahydrocyclopropa[e]pyrrolo[1,2-a][1,4]diazacyclopentadecin-2-yl 4-fluoroisoindoline-2-carboxylate] | – | 1.01 to 5 nM | – | 1.01 to 5 nM
8 | C[C@H]1CC/C=C\[C@@H]2C[C@@]2(C(=O)NS(=O)(=O)C2(C)CC2)NC(=O)[C@@H]2C[C@@H](OC(=O)N3Cc4cccc(F)c4C3)CN2C(=O)[C@@H](NC(=O)OC(C)(C)C)[C@H](C)C1 [Compound 1314, (2R,6S,7R,9S,13aS,14aR,16aS,Z)-6-((tert-butoxycarbonyl)amino)-7,9-dimethyl-14a-(((1-methylcyclopropyl)sulfonyl)carbamoyl)-5,16-dioxo-1,2,3,5,6,7,8,9,10,11,13a,14,14a,15,16,16a-hexadecahydrocyclopropa[e]pyrrolo[1,2-a][1,4]diazacyclopentadecin-2-yl 4-fluoroisoindoline-2-carboxylate] | – | 5.01 to 35 nM | – | 1.01 to 5 nM
9 | C[C@@H]1CC/C=C\[C@@H]2C[C@@]2(C(=O)NS(=O)(=O)C2(C)CC2)NC(=O)[C@@H]2C[C@@H](OC(=O)N3Cc4cccc(F)c4C3)CN2C(=O)[C@@H](NC(=O)OC(C)(C)C)[C@H](C)C1 [Compound 1315, (2R,6S,7R,9R,13aS,14aR,16aS,Z)-6-((tert-butoxycarbonyl)amino)-7,9-dimethyl-14a-(((1-methylcyclopropyl)sulfonyl)carbamoyl)-5,16-dioxo-1,2,3,5,6,7,8,9,10,11,13a,14,14a,15,16,16a-hexadecahydrocyclopropa[e]pyrrolo[1,2-a][1,4]diazacyclopentadecin-2-yl 4-fluoroisoindoline-2-carboxylate] | 0.96 nM | 0.51 to 1 nM | 0.33 nM | 0.1 to 0.5 nM
